Entries after “also recorded” stand apart in the source; their conditions may differ. Like-named read-outs stand apart in the source and are kept apart here.
How the values were obtained:
Assay type in all cases: in vivo
[1] = Levels of LOU064 in mouse tissues (blood, brain, CSF); settings: for concentration at 1 h / concentration at 5 h / concentration at 8 h: C57BL/6, mouse, oral
Procedure: The compound levels in total brain homogenate are very low and mainly detectable at the early timepoint. Similarly, the levels in cerebrospinal fluid (CSF) are low.
Blood, brain and CSF levels of LOU064 after oral dosing of 3 and 30 mg/kg b.i.d. The LLOQ were 0.2 nM in blood, […] in brain homogenate and 0.5 nM in CSF. Shown are averages ±SD from 4 animals for the 1 h timepoints and from 3 animals for the 5 and 8 h timepoints. Where denoted with ^a, the values were derived from one animal of three that was above the LLOQ.

BTK = molecular target: T1, BTK (Mus musculus, UniProt P35991); assay: BTK occupancy in spleen, lymph nodes and brain homogenate, HumanMOG EAE
T1 construct: from tissue; host or cells: spleen, inguinal lymph nodes, blood and brain homogenate of C57BL/6 EAE mice
Procedure: BTK occupancy in spleen was determined at 1, 5 and 8 hours after b.i.d. oral dosing of LOU064 (FIG. 4).
BTK occupancy was assessed in brain homogenates that had been prepared for compound exposure analysis (FIG. 6). […] Variability in brain BTK occupancy might be due to the fact that the analysis was performed on the remainder of the homogenates prepared for compound level assessment.

HumanMOG-induced EAE = HumanMOG-induced EAE in C57BL/6 mouse, prophylactic b.i.d. dosing
Source text: There is no known naturally occurring MS-like disease in rodents or non-human primates. Following immunization of susceptible rodent strains with CNS-specific myelin proteins emulsified in complete Freund's adjuvant (CFA) an induced disease model develops. Experimental autoimmune encephalitis (EAE) mimics many of the pathological phenotypes of MS with focal, demyelinating lesions of the CNS white matter. In the C57BL/6 mouse there are two variants of myelin oligodendrocyte glycoprotein (MOG)-induced EAE depending on whether the human (HumanMOG) or rat (RatMOG) recombinant protein sequences are used (Lyons J.A. et al. (1999) European Journal of Immunology 29:3432-3439; Oliver A. R. et al. (2003) J Immunology 171: 462-468). Minor amino acid residue differences result in HumanMOG-induced EAE being exquisitely B-cell dependent as the APC, whilst RatMOG-induced EAE is B-cell independent and requires dendritic cells as the dominant APC population (Lyons et al 1999; Molnarfi N. et al. (2013) Journal of Experimental Medicine 210(13):2921-2937).
In HumanMOG-induced EAE the BTK inhibitor LOU064 was dosed twice daily (b.i.d.) at 3 mg/kg or 30 mg/kg at 12 hr intervals. Prophylactic dosing of LOU064 was initiated 6 hours prior to MOG/CFA immunization and continued until study end.
EAE was assessed using a scoring system, outlined in Table 1. Clinical scores and body weights were assessed daily throughout the experiment.
According to the animal regulations, humane endpoints for EAE mice were score 3 (>7 days), score 3.5 (>3 days), or immediately if score 4 was reached.
Using a short eight-day (pre-disease onset) EAE protocol, the immune priming mechanisms during the HumanMOG model were investigated.

[2] = 3 mg/kg b.i.d., 1, 5 and 8 hours after dosing
[3] = 30 mg/kg b.i.d., 1, 5 and 8 hours after dosing

T1 sequence (P35991 whole entry): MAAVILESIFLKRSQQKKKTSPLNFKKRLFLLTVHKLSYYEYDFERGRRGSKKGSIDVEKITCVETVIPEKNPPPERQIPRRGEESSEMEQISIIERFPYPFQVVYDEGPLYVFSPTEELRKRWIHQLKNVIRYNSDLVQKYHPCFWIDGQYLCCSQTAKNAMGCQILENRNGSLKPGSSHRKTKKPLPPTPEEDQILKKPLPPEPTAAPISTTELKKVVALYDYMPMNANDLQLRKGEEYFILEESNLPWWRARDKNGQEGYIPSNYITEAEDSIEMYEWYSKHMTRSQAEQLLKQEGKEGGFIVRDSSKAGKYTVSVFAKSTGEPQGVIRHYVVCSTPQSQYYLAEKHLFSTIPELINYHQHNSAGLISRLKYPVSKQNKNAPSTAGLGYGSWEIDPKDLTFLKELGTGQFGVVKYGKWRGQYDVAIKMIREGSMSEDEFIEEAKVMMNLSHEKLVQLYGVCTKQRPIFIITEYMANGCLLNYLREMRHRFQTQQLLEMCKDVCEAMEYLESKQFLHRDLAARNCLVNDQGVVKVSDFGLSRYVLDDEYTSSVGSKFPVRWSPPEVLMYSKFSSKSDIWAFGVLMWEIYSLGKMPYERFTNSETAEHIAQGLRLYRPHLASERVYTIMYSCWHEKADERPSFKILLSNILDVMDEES

For `C=CC(=O)N(C)CCOc1c(N)ncnc1-c1cc(F)cc(NC(=O)c2ccc(C3CC3)cc2F)c1C` [LOU064, N-(3-(6-amino-5-(2-(N-methylacrylamido)ethoxy)pyrimidin-4-yl)-5-fluoro-2-methylphenyl)-4-cyclopropyl-2-fluorobenzamide], the “Levels of LOU064, Brain” value ([1]; 3 mg/kg p.o. b.i.d., 1 h) was 2.3 ± 2.2 pmol/g, the “Levels of LOU064, Brain” value ([1]; 3 mg/kg p.o. b.i.d., 5 h) was <0.5 pmol/g and the “Levels of LOU064, Brain” value ([1]; 3 mg/kg p.o. b.i.d., 8 h) was <0.5 pmol/g. The “Levels of LOU064, Brain” value ([1]; 30 mg/kg p.o. b.i.d., 1 h) was 13.5 ± 6.0 pmol/g, the “Levels of LOU064, CSF” value ([1]; 30 mg/kg p.o. b.i.d., 1 h) was 8.4 ± 3.1 nM and the “Levels of LOU064, Brain” value ([1]; 30 mg/kg p.o. b.i.d., 5 h) was 0.7 ± 0.02 pmol/g. The “Levels of LOU064, Brain” value ([1]; 30 mg/kg p.o. b.i.d., 8 h) was <0.5 pmol/g, the concentration at 1 h ([1]; CSF, 3 mg/kg p.o. b.i.d., 1 h, read-out: Levels of LOU064, CSF) was 3 ± 3.3 nM and the concentration at 5 h ([1]; CSF, 3 mg/kg p.o. b.i.d., 5 h, one animal of three above LLOQ, read-out: Levels of LOU064, CSF) was 0.5 nM. For the same molecule, the concentration at 8 h ([1]; CSF, 3 mg/kg p.o. b.i.d., 8 h, read-out: Levels of LOU064, CSF) was < 0.5 nM, the concentration at 5 h ([1]; CSF, 30 mg/kg p.o. b.i.d., 5 h, one animal of three above LLOQ, read-out: Levels of LOU064, CSF) was 0.5 nM and the concentration at 8 h ([1]; CSF, 30 mg/kg p.o. b.i.d., 8 h, read-out: Levels of LOU064, CSF) was < 0.5 nM. For the same molecule, the concentration at 1 h ([1]; whole blood, 3 mg/kg p.o. b.i.d., 1 h, read-out: Levels of LOU064, Blood) was 28.2 ± 11.7 nM, the concentration at 5 h ([1]; whole blood, 3 mg/kg p.o. b.i.d., 5 h, read-out: Levels of LOU064, Blood) was 0.4 ± 0.04 nM and the concentration at 8 h ([1]; whole blood, 3 mg/kg p.o. b.i.d., 8 h, read-out: Levels of LOU064, Blood) was 0.2 ± 0.07 nM. It also gave a concentration at 1 h ([1]; whole blood, 30 mg/kg p.o. b.i.d., 1 h, read-out: Levels of LOU064, Blood) of 371 ± 149 nM, a concentration at 5 h ([1]; whole blood, 30 mg/kg p.o. b.i.d., 5 h, read-out: Levels of LOU064, Blood) of 19.4 ± 9.9 nM and a concentration at 8 h ([1]; whole blood, 30 mg/kg p.o. b.i.d., 8 h, read-out: Levels of LOU064, Blood) of 3.4 ± 2.3 nM. For the same molecule, the “BTK occupancy in lymph nodes” value (BTK; [2]) was “maximal for both doses and showed a decay after a 3 mg/kg dose; also recorded: complete BTK occupancy”, the “BTK occupancy in spleen” value (BTK; [2]) was “maximal for both doses and showed a decay after a 3 mg/kg dose; also recorded: complete BTK occupancy” and the “BTK occupancy in brain homogenate” value (BTK; 3 mg/kg b.i.d., 1 hour timepoint) was “only minimal BTK occupancy”. The “BTK occupancy in brain homogenate” value (BTK; 30 mg/kg b.i.d.) was “maximal BTK occupancy with a decline over the dosing interval”, the “BTK occupancy in lymph nodes” value (BTK; [3]) was “a more sustained occupancy after the 30 mg/kg dose” and the “BTK occupancy in spleen” value (BTK; [3]) was “a more sustained occupancy after the 30 mg/kg dose”. The “neurologic symptoms and EAE-induced weight loss” value (HumanMOG-induced EAE; 3 mg/kg b.i.d.) was “only a fairly weak reduction”, the cumulative disease burden (HumanMOG-induced EAE; 30 mg/kg b.i.d.) was “significantly reduced” and the “disease incidence / frequency of EAE onset” value (HumanMOG-induced EAE; 30 mg/kg b.i.d.) was “reduction in the frequency of EAE onset; also recorded: significantly reduced disease incidence”. The “peak EAE score” value (HumanMOG-induced EAE; 30 mg/kg b.i.d.) was “significantly reduced”, the “EAE clinical symptoms / EAE scores” value (HumanMOG-induced EAE; 30 mg/kg p.o. b.i.d.) was “improvement in EAE scores; also recorded: significantly reduced clinical symptoms of EAE; also recorded: highly effective at inhibiting HumanMOG-induced EAE induction; also recorded: strongly reduced neurologic symptoms” and the “inflammation-induced cachexia / daily body weight change” value (HumanMOG-induced EAE; 30 mg/kg p.o. b.i.d.) was “significantly improved; also recorded: inhibited inflammation-induced cachexia; also recorded: strongly reduced”. The tolerability (HumanMOG-induced EAE; 3 and 30 mg/kg p.o. b.i.d.) was “well tolerated in all animals”, the adverse events (HumanMOG-induced EAE; mouse, in vivo) was “no adverse events were observed with either dose group” and the “weight gain in immunized mice (inflammation-induced cachexia)” value (HumanMOG-induced EAE; short eight-day pre-EAE protocol, 30 mg/kg twice daily) was “improved weight gain”.

— patent US20240350489A1, “LOU064 FOR TREATING MULTIPLE SCLEROSIS” (NOVARTIS AG, priority 2021, published 2024)
